Experimental data: the NIST ThermoML archive (doi:10.1007/s10765-011-0999-6)

Conditions: Gas, Capillary tube (Ostwald / Ubbelohde) method

[HH] [hydrogen]
Conditions	viscosity [mPa·s]
294.1 K, 34430 kPa	0.00964
294.52 K, 4680 kPa	0.00901
294.91 K, 10160 kPa	0.00911
295 K, 81640 kPa	0.01139
295.01 K, 52730 kPa	0.01021
295.02 K, 99320 kPa	0.01196
333.28 K, 4940 kPa	0.00983
333.3 K, 48480 kPa	0.01055
333.31 K, 69110 kPa	0.01122
333.31 K, 94920 kPa	0.01217
333.32 K, 9480 kPa	0.0099
400.1 K, 28190 kPa	0.01115
400.11 K, 4830 kPa	0.01109
400.11 K, 9190 kPa	0.01127
400.11 K, 49790 kPa	0.01163
400.12 K, 71210 kPa	0.01217

N#N [nitrogen]
Conditions	viscosity [mPa·s]
297.22 K, 31330 kPa	0.02799
297.23 K, 40300 kPa	0.03044
297.24 K, 50620 kPa	0.03457
297.25 K, 24520 kPa	0.02464
297.25 K, 85020 kPa	0.0474
297.26 K, 70280 kPa	0.04283
297.3 K, 570 kPa	0.01774
297.32 K, 2900 kPa	0.01836
297.32 K, 4960 kPa	0.01892
297.33 K, 9020 kPa	0.0199
297.45 K, 60740 kPa	0.03906
297.46 K, 95040 kPa	0.05291
333.14 K, 10530 kPa	0.02163
333.16 K, 15340 kPa	0.0222
333.22 K, 24490 kPa	0.02538
333.3 K, 34970 kPa	0.02945
333.42 K, 48850 kPa	0.03239
333.51 K, 74270 kPa	0.03968
333.59 K, 95150 kPa	0.04811
400.07 K, 7230 kPa	0.02297
400.07 K, 10740 kPa	0.02334
400.07 K, 15630 kPa	0.02427
400.07 K, 25910 kPa	0.02639
400.07 K, 35280 kPa	0.0284
400.07 K, 47240 kPa	0.03189
400.07 K, 65020 kPa	0.03573
400.07 K, 95070 kPa	0.04385
499.24 K, 30120 kPa	0.02951
499.24 K, 48890 kPa	0.03275
499.24 K, 69570 kPa	0.03658
499.24 K, 94610 kPa	0.04084
499.43 K, 10560 kPa	0.02699
